Results published in patent publication US11180495B2 (Abbisko Therapeutics Co., Ltd., priority 2017, dated 2021).

Assays:
CSF-1R = target: T1, CSF-1R (Homo sapiens, UniProt P07333); experiment: CSF-1R in vitro biochemical kinase study (ADP-Glo assay); details: 3.95 nM CSF-1R, 500 μM ATP, 30° C. 60 min, read-out: Enzymatic experiment CSF-1R IC50
T1 construct: 3.95 nM of CSF-1R, 500 μM of ATP and 0.2 mg/mL of polypeptide
Protocol: In the present invention, the inhibitory activity of compounds against the CSF-1R activity was determined by using CSF-1R ADP-Glo assay. The compound-mediated inhibition effect was achieved by inhibiting the production of ADP from consumption of ATP, and the activities of compounds were evaluated by using the ADP-Glo kit (Promega, cat. No. V9101). The specific experimental process was as follows: • 1. The kinase reaction performed in the present invention was carried out in a 384-well plate (Perkinelmer, cat. No. 6007290), and 3.95 nM of CSF-1R, 500 μM of ATP and 0.2 mg/mL of polypeptide (Poly (Glu4, Try1), Sigma, cat. No. P0275) were respectively weighed and added to each well: • 2. following reagents were then added to each well to reach the final reaction system: 40 mM Tris, pH 7.5, 20 mM MgCl2, 0.01% Triton X-100, 0.1 mg/mL BSA, 2.5 mM DTT and 0.1% DMSO; • 3. the reaction was conducted at 30° C. for 60 min; • 4. then an equal volume of stop solution (ADP-Glo) was added to the kinase reaction system; • 5. the mixed solution was incubated at 25° C. for 60 min, and the kinase reaction was then terminated; • 6. a two-fold volume of detection reagent was then added to each well; • 7. the mixed solution was incubated at 25° C. for 30 min; • 8. the compound IC50 value was measured by using a plate reader (Tecan, M1000) and a four-parameter curve was generated in Graphpad Prism. B. KIT/PDGFRA In Vitro Biochemical Kinase Study • 1. Preparation of 1-fold kinase buffer and stop solution • 1.1 1-fold kinase buffer: 50 mM HEPES, pH 7.5, 0.0015% Brij-35. • 1.2 stop solution: 100 mM HEPES, pH 7.5, 0.015% Brij-35, 0.2% Coating Reagent #3 50 mM EDTA • 2. Preparation of compound solution • 2.1 Dilution of compound solution • 1) The final concentration of the compound solution was 40 μM. and the concentration of the prepared stock solution was 50 times of the final concentration, i.e., 2 mM. • 2) 80 μL of 100% DMSO was added to the second well of the 96-well plate, then 20 μL of 10 mM compound solution was added, and thereby 2 mM compound solution was prepared, 60 μL of 100% DMSO was added to other wells, 20 μL of compound was taken from the second well, added to the third well and diluted by 4 times. This serial 4-time dilution was conducted in sequence for the total of 10 concentrations. • 2.2 5-fold compound solution transferred to a reaction plate • 1) 10 μL of solution was taken from each well of the above 96-well plate and added to another 96-well plate, and 90 μL of kinase buffer was added. • 2) 5 μL of solution was taken from the above 96-well plate and added to a 384-well reaction plate. • 2.3 Kinase reaction • 1) KIT/PDGFRA kinase was added to the 1-fold kinase buffer solution to obtain a 2.5-fold kinase solution. • 2) FAM-labeled polypeptide and ATP were added to the 1-fold kinase buffer solution to obtain a 2.5-fold substrate solution. • 3) 10 μL of 2.5-fold kinase solution was added to the 384-well reaction plate, which already contained 5 μL of 5-fold compound in 10% DMSO. And the mixed solution was incubated at room temperature for 10 min. • 4) 10 μL of 2.5-fold substrate solution was added to the 384-well reaction plate. • 5) Kinase reaction and termination: the mixed solution was incubated at 28° C. for a certain period of time, and 25 μL of stop solution was added to stop the reaction. • 2.4 Data reading of Caliper EZ Reader II • 2.5 Calculation of percent inhibition and IC50 • 1) Percent conversion data were copied from the Caliper EZ Reader. • 2) Percent conversion was converted into percent inhibition data, wherein, max referred to percent conversion of the DMSO control, and min referred to percent conversion of the negative control without kinase activity. Percent inhibition=(max−conversion)/(max−min)*100. • 3) The IC50 value was fitted with XLFit excel add-in version 5.4.0.8: Fitting formula: Y=Bottom+(Top−Bottom)/(1+(IC50/X)^HillSlope).

[1] = test system: M-07e human cytomegalic leukemia cells; experiment: KIT-related cell proliferation experiment (Cell Titer Glo); assay type: cell-based; details: 72 h, M-07e cells, SCF, 3 days, CTG, read-out: Cytological experiment KIT IC50
Protocol: Functional effects of compounds on the proliferation of several cell lines were evaluated by Cell Titer Glo (CTG) studies in the present invention, and effects of the compounds on the proliferation of different cells were evaluated to determine the selectivity degree of the compounds. In the study, M-07e human cytomegalic leukemia cells (cat. No. CBP60791) from Nanjing Kebai Biotechnology Co., Ltd. were cultured in an incubator under conditions of RPMI1640 (Gibco, cat. No. 11875-119), 20% fetal bovine serum (Gibco, 10099-141), human 10 ng/mL GM-CSF granulocyte macrophage colony-stimulating factors (R&D, cat. No. 215-GM-010), 37° C. and 5% CO2; and Kasumi-1 human acute myeloblastic leukemia cells (cat. No. CBP60524) were cultured in an incubator under conditions of RPMI1640 (Gibco, cat. No. 11875-119), 20% fetal bovine serum (Gibco, 10099-141), 37° C. and 5% CO2; NCI-H1703 human non-small cell lung squamous carcinoma cells (cat. No. CBP60115) were cultured in an incubator under conditions of RPMI1640 (Gibco, cat. No. 11875-119), 10% fetal bovine serum (Gibco, 10099-141), 37° C. and 5% CO2; and MV-4-11 human acute monocytic leukemia cells (cat. No. CBP60522) were cultured in an incubator under conditions of IMDM (Invitrogen, cat. No. 12440053), 20% fetal bovine serum (Gibco, 10099-141), 37° C. and 5% CO2. Since ATP is an index for viable cell metabolism, CTG (Promega, #G7573) reagent is a homogeneous detection method for detecting the number of viable cells in the culture by quantifying ATP. Therefore, compound-mediated inhibition for cell proliferation/survival was evaluated by quantifying ATP content in cells, and the specific experimental process was as follows.
I) M-07e Human Cytomegalic Leukemia Cell: • 1. The cells were plated into a tissue-culture-medium-treated 96-well plate (Costar #3904) with 3500 cells/well/80 μL fresh culture medium, and cultured for 24 hrs; • 2. the next day, 10 μL of culture medium containing testing compound with 10-fold of final concentration was added to each well; • 3.

PDGFRA = PDGFRA (Homo sapiens, UniProt P16234); experiment: PDGFRA in vitro biochemical kinase study (Caliper EZ Reader); details: FAM-labeled polypeptide, Caliper EZ Reader II; read-out: Enzymatic experiment PDGFRA IC50
Protocol: (§1) In the present invention, the inhibitory activity of compounds against the CSF-1R activity was determined by using CSF-1R ADP-Glo assay. The compound-mediated inhibition effect was achieved by inhibiting the production of ADP from consumption of ATP, and the activities of compounds were evaluated by using the ADP-Glo kit (Promega, cat. No. V9101). The specific experimental process was as follows: • 1. The kinase reaction performed in the present invention was carried out in a 384-well plate (Perkinelmer, cat. No. 6007290), and 3.95 nM of CSF-1R, 500 μM of ATP and 0.2 mg/mL of polypeptide (Poly (Glu4, Try1), Sigma, cat. No. P0275) were respectively weighed and added to each well: • 2. following reagents were then added to each well to reach the final reaction system: 40 mM Tris, pH 7.5, 20 mM MgCl2, 0.01% Triton X-100, 0.1 mg/mL BSA, 2.5 mM DTT and 0.1% DMSO; • 3. the reaction was conducted at 30° C. for 60 min; • 4. then an equal volume of stop solution (ADP-Glo) was added to the kinase reaction system; • 5. the mixed solution was incubated at 25° C. for 60 min, and the kinase reaction was then terminated; • 6. a two-fold volume of detection reagent was then added to each well; • 7. the mixed solution was incubated at 25° C. for 30 min; • 8. the compound IC50 value was measured by using a plate reader (Tecan, M1000) and a four-parameter curve was generated in Graphpad Prism. B. KIT/PDGFRA In Vitro Biochemical Kinase Study • 1. Preparation of 1-fold kinase buffer and stop solution • 1.1 1-fold kinase buffer: 50 mM HEPES, pH 7.5, 0.0015% Brij-35. • 1.2 stop solution: 100 mM HEPES, pH 7.5, 0.015% Brij-35, 0.2% Coating Reagent #3 50 mM EDTA • 2. Preparation of compound solution • 2.1 Dilution of compound solution • 1) The final concentration of the compound solution was 40 μM. and the concentration of the prepared stock solution was 50 times of the final concentration, i.e., 2 mM. • 2) 80 μL of 100% DMSO was added to the second well of the 96-well plate, then 20 μL of 10 mM compound solution was added, and thereby 2 mM compound solution was prepared, 60 μL of 100% DMSO was added to other wells, 20 μL of compound was taken from the second well, added to the third well and diluted by 4 times. […]

KIT = KIT (Homo sapiens, UniProt P10721); experiment: KIT in vitro biochemical kinase study (Caliper EZ Reader); details: FAM-labeled polypeptide, Caliper EZ Reader II; read-out: Enzymatic experiment KIT IC50
Protocol: as §1

T1 sequence (P07333 20-972): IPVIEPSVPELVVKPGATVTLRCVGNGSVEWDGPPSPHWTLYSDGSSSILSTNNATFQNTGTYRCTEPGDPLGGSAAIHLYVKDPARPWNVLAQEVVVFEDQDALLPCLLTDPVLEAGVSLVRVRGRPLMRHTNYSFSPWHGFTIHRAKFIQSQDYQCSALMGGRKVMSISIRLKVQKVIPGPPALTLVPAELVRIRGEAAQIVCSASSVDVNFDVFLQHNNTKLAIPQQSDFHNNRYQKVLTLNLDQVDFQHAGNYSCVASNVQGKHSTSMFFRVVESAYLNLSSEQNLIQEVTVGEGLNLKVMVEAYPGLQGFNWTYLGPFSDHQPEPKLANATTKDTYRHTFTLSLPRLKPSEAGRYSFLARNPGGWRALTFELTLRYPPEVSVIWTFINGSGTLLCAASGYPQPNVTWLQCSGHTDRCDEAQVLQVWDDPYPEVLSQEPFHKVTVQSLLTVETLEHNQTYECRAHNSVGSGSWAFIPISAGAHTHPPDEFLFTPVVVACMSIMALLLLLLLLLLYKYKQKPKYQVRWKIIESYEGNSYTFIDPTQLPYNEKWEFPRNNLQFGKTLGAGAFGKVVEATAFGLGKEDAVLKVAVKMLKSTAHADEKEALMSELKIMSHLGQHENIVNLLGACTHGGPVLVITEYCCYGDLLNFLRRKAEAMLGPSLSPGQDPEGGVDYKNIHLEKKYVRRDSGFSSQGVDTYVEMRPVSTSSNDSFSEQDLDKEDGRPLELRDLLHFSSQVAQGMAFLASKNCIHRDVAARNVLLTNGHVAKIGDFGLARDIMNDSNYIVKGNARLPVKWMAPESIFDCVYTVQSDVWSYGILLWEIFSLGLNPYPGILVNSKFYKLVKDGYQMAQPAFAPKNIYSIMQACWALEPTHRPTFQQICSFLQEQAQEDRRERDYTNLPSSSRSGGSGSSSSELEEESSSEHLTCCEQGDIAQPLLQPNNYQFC
Sequence of PDGFRA (P16234 24-1089): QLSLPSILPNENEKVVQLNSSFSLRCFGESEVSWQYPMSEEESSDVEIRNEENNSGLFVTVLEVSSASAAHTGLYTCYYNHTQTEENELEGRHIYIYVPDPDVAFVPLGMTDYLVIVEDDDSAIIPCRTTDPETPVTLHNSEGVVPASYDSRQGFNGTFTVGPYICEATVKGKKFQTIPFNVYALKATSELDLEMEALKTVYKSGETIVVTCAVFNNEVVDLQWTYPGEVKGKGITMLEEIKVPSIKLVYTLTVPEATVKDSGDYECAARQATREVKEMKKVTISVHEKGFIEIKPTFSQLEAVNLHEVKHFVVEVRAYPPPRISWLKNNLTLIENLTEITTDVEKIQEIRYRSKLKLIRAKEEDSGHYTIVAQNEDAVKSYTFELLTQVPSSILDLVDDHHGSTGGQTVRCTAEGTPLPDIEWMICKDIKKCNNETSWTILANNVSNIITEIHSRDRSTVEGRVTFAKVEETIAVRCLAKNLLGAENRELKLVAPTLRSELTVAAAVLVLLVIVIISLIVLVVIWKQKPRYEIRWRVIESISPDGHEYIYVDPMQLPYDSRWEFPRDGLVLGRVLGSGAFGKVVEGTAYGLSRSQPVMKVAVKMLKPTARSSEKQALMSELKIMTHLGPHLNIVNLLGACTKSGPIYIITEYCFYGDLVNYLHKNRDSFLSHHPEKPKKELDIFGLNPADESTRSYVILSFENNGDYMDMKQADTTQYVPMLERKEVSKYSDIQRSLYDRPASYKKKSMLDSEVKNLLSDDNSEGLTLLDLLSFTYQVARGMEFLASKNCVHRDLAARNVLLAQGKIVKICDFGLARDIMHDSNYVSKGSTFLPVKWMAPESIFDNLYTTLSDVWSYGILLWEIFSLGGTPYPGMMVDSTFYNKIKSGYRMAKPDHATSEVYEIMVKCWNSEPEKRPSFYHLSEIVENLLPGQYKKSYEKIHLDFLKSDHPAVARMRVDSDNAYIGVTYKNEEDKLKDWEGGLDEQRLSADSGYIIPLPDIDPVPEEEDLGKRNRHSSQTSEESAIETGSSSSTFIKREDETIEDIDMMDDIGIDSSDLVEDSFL
Sequence of KIT (P10721 26-976): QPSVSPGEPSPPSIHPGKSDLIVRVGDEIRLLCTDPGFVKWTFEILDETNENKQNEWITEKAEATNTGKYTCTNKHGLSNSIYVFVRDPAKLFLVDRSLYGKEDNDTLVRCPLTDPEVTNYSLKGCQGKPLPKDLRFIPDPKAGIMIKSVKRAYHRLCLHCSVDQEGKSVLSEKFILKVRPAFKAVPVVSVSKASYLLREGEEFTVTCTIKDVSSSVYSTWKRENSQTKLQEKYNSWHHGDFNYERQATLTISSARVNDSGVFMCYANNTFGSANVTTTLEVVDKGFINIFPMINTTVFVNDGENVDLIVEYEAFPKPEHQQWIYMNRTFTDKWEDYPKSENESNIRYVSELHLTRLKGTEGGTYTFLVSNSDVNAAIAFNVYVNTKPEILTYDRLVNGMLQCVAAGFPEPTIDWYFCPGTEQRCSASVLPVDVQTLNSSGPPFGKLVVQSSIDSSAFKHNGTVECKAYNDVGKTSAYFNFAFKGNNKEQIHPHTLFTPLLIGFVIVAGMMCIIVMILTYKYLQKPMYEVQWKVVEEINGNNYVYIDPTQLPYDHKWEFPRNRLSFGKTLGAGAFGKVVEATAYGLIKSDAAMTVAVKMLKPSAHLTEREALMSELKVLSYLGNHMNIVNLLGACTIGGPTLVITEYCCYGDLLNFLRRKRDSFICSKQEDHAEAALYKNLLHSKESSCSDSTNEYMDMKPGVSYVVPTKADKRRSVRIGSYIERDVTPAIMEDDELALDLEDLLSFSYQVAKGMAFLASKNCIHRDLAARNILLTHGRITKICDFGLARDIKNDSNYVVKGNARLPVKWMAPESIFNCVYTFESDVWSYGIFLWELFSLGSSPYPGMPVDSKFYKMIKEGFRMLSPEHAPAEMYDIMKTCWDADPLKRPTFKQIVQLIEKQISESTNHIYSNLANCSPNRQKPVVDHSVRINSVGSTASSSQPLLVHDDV

Row | SMILES | IC50 (CSF-1R) [nM] | IC50 [1] [nM] | IC50 (PDGFRA) [nM] | IC50 (KIT) [nM]
1 | Cc1nc(-c2cnc3n(c2=O)CCC(C)N3C)ccc1Cc1c[nH]c2ncc(Cl)cc12 (stereo not shown) [Example 15, 3-(5-((5-chloro-1H-pyrrolo[2,3-b]pyridin-3-yl)methyl)-6-methylpyridin-2-yl)-8,9-dimethyl-6,7,8,9-tetrahydro-4H-pyrimido[1,2-a]pyrimidin-4-one] | 49.5 | 788 | – | –
2 | Cc1nc(-c2cnc3n(c2=O)CCCN3C)ccc1Cc1c[nH]c2ncc(-c3cnn(C)c3)cc12 [Example 18, 9-methyl-3-(6-methyl-5-((5-(1-methyl-1H-pyrazol-4-yl)-1H-pyrrolo[2,3-b]pyridin-3-yl)methyl)pyridin-2-yl)-6,7,8,9-tetrahydro-4H-pyrimido[1,2-a]pyrimidin-4-one] | 4.34 | 232 | – | –
3 | Cc1nc(-c2cnc3n(c2=O)CCCN3C)ccc1Cc1c[nH]c2ncccc12 [Example 14, 3-(5-((1H-pyrrolo[2,3-b]pyridin-3-yl)methyl)-6-methylpyridin-2-yl)-9-methyl-6,7,8,9-tetrahydro-4H-pyrimido[1,2-a]pyrimidin-4-one] | 55.2 | 10600 | – | –
4 | COc1cnc2[nH]cc(Cc3ccc(-c4cnc5n(c4=O)CCCN5C)nc3C)c2c1 [Example 22, 3-(5-((5-methoxy-1H-pyrrolo[2,3-b]pyridin-3-yl)methyl)-6-methylpyridin-2-yl)-9-methyl-6,7,8,9-tetrahydro-4H-pyrimido[1,2-a]pyrimidin-4-one] | 43.5 | 1520 | – | –
5 | CCN1CCCn2c1ncc(-c1ccc(Cc3c[nH]c4ncc(Cl)cc34)c(C)n1)c2=O [Example 16, 3-(5-((5-chloro-1H-pyrrolo[2,3-b]pyridin-3-yl)methyl)-6-methylpyridin-2-yl)-9-ethyl-6,7,8,9-tetrahydro-4H-pyrimido[1,2-a]pyrimidin-4-one] | 45.6 | 271 | – | –
6 | CCN1CCCn2c1ncc(-c1ccc(Cc3c[nH]c4ncc(-c5cnn(C)c5)cc34)c(C)n1)c2=O [Example 17] | 5.35 | 38.5 | – | –

Now from value to compound:

Row | IC50 (CSF-1R) [nM] | IC50 [1] [nM] | IC50 (PDGFRA) [nM] | IC50 (KIT) [nM] | SMILES
7 | 45.9 | 1120 | 9270 | 222 | Cc1nc(-c2cnc(NC(C)C)[nH]c2=O)ccc1Cc1c[nH]c2ncc(F)cc12 [Example 5, 5-(5-((5-fluoro-1H-pyrrolo[2,3-b]pyridin-3-yl)methyl)-6-methylpyridin-2-yl)-2-(isopropylamino)pyrimidin-4(3H)-one]
8 | 38.9 | 1840 | – | – | Cc1nc(-c2cnc3n(c2=O)CCCN3C)ccc1Cc1c[nH]c2ncc(O)cc12 [Example 23]
9 | 96.3 | 1510 | – | – | Cc1cnc2[nH]cc(Cc3ccc(-c4cnc5n(c4=O)CCCN5C)nc3C)c2c1 [Example 21, 9-methyl-3-(6-methyl-5-((5-methyl-1H-pyrrolo[2,3-b]pyridin-3-yl)methyl)pyridin-2-yl)-6,7,8,9-tetrahydro-4H-pyrimido[1,2-a]pyrimidin-4-one]
10 | 46.1 | 3190 | – | – | Cc1nc(-c2cnc3n(c2=O)CCCN3C)ccc1Cc1c[nH]c2ncc(F)cc12 [Example 20, 3-(5-((5-fluoro-1H-pyrrolo[2,3-b]pyridin-3-yl)methyl)-6-methylpyridin-2-yl)-9-methyl-6,7,8,9-tetrahydro-4H-pyrimido[1,2-a]pyrimidin-4-one]
11 | 36.7 | 834 | 998 | 50.8 | Cc1nc(-c2cnc(NC(C)C)n(C)c2=O)ccc1Cc1c[nH]c2ncccc12 [Example 7, 5-(5-((1H-pyrrolo[2,3-b]pyridin-3-yl)methyl)-6-methylpyridin-2-yl)-2-(isopropylamino)-3-methylpyrimidin-4(3H)-one]
12 | 65.6 | 1200 | – | – | Cc1nc(-c2cnc3n(c2=O)CCCN3C)ccc1Cc1c[nH]c2ncc(Cl)cc12 [Example 13, 3-(5-((5-chloro-1H-pyrrolo[2,3-b]pyridin-3-yl)methyl)-6-methylpyridin-2-yl)-9-methyl-6,7,8,9-tetrahydro-4H-pyrimido[1,2-a]pyrimidin-4-one]
